In patent publication US4166114A, “Aminoglycoside antibiotic derivatives and method of use” (Shionogi & Co., Ltd., priority 1976, dated 1979):
In brackets after ≈: the same amount, converted by molar mass. Where two headings read alike, the source gives them in different places.

What was measured:
[1] = system: Proteus rettgeri Ret 33; assay: MIC (minimum inhibitory concentration); details: Providencia rettgeri, RET33
[2] = system: Staphylococcus aureus ATCC 25923; assay: MIC (minimum inhibitory concentration)
[3] = system: Escherichia coli TB-705; assay: MIC (minimum inhibitory concentration); assay type: cell-based; details: TB705, Table 3
[4] = system: Enterobacter cloacae CI-83; assay: MIC (minimum inhibitory concentration); details: CI83
[5] = system: Serratia marcescens MA-26; assay: MIC (minimum inhibitory concentration); details: MA26
[6] = system: Staphylococcus aureus 80285; assay: MIC (minimum inhibitory concentration)
[7] = system: Proteus mirabilis TB-617; assay: MIC (minimum inhibitory concentration); assay type: cell-based
[8] = system: Escherichia coli W-677/JR 214; assay: MIC (minimum inhibitory concentration); details: tobramycin resistant organism
[9] = system: Escherichia coli W-677/JR 762; assay: MIC (minimum inhibitory concentration)
[10] = system: Pseudomonas aeruginosa PP-6; assay: MIC (minimum inhibitory concentration); details: tobramycin resistant organism
[11] = system: Citrobacter freundii Ct-31; assay: MIC (minimum inhibitory concentration); details: CT31
[12] = system: Klebsiella pneumoniae Kl-38; assay: MIC (minimum inhibitory concentration)
[13] = system: Pseudomonas aeruginosa TM-121; assay: MIC (minimum inhibitory concentration)
[14] = literature (Kawaguchi et al.; Fujisawa et al.); cited from earlier work
[15] = system: kanamycin resistant bacteria; details: literature (Kawaguchi et al.; Fujisawa et al.); cited from earlier work
[16] = Staphylococcus aureus, ATCC25923
[17] = Proteus mirabilis, TB617, Table 2, read-out: MIC
[18] = Proteus mirabilis, TB617, Table 3, read-out: MIC
[19] = Escherichia coli, W677/JR214, Table 2
[20] = Escherichia coli, W677/JR214, Table 3
[21] = Pseudomonas aeruginosa, PP6, Table 2
[22] = Pseudomonas aeruginosa, PP6, Table 3
[23] = Klebsiella pneumoniae, KL38, Table 2
[24] = Klebsiella pneumoniae, KL38, Table 3
[25] = Table 2, tobramycin resistant organism

Compound	MIC [1]	MIC [2, 16]	MIC [3]	MIC [4]	MIC [5]	MIC [6]	MIC [7, 17]	MIC [7, 18]	MIC [8, 19]	MIC [8, 20]	MIC ([9]; Escherichia coli, W677/JR762)	MIC [10, 21]	MIC [10, 22]	MIC [11]	MIC [12, 23]	MIC [12, 24]	MIC ([13]; Pseudomonas aeruginosa, TM121)	further results
NC[C@H]1O[C@H](O[C@H]2[C@H](O)[C@@H](O[C@H]3O[C@H](CO)[C@@H](O)[C@H](N)[C@H]3O)[C@H](N)C[C@@H]2N)[C@H](O)[C@@H](O)[C@@H]1O [KM-A, kanamycin A]	> 100 µg/mL	6.25 µg/mL (≈ 12.9 µM)	> 100 µg/mL	> 100 µg/mL	> 100 µg/mL	> 100 µg/mL	> 200 µg/mL	> 100 µg/mL	> 200 µg/mL	> 100 µg/mL	> 200 µg/mL	200 µg/mL (≈ 413 µM)	> 100 µg/mL	> 100 µg/mL	> 200 µg/mL	> 100 µg/mL	> 200 µg/mL	–
NC[C@H]1O[C@H](O[C@H]2[C@H](O)[C@@H](O[C@H]3O[C@H](CO)[C@@H](O)[C@H](N)[C@H]3O)[C@H](N)C[C@@H]2N)[C@H](N)C[C@@H]1O [TOB, tobramycin]	1.56 µg/mL (≈ 3.34 µM)	1.56 µg/mL (≈ 3.34 µM)	6.25 µg/mL (≈ 13.4 µM)	0.78 µg/mL (≈ 1.67 µM)	50 µg/mL (≈ 107 µM)	0.78 µg/mL (≈ 1.67 µM)	12.5 µg/mL (≈ 26.7 µM)	12.5 µg/mL (≈ 26.7 µM)	50 µg/mL (≈ 107 µM)	100 µg/mL (≈ 214 µM)	100 µg/mL (≈ 214 µM)	50 µg/mL (≈ 107 µM)	> 100 µg/mL	3.13 µg/mL (≈ 6.69 µM)	3.13 µg/mL (≈ 6.69 µM)	1.56 µg/mL (≈ 3.34 µM)	100 µg/mL (≈ 214 µM)	–
CN[C@@H]1[C@@H](O)[C@@H](O[C@@H]2[C@@H](O)[C@H](O[C@H]3OC(CN)=CC[C@H]3N)[C@@H](N)C[C@H]2N)OC[C@]1(C)O [SSM, sisomicin]	–	1.56 µg/mL (≈ 3.49 µM)	–	–	–	–	12.5 µg/mL (≈ 27.9 µM)	–	25 µg/mL (≈ 55.9 µM)	–	50 µg/mL (≈ 112 µM)	200 µg/mL (≈ 447 µM)	–	–	0.39 µg/mL (≈ 0.871 µM)	–	200 µg/mL (≈ 447 µM)	–
NC[C@H]1O[C@H](O[C@H]2[C@H](O)[C@@H](O[C@H]3O[C@H](CO)[C@@H](O)[C@H](N)[C@H]3O)[C@H](NC(=O)C3(O)CCNCC3)C[C@@H]2N)[C@H](N)C[C@@H]1O [TOB der.]	0.78 µg/mL (≈ 1.31 µM)	1.56 µg/mL (≈ 2.62 µM)	3.13 µg/mL (≈ 5.26 µM)	0.78 µg/mL (≈ 1.31 µM)	12.5 µg/mL (≈ 21 µM)	0.39 µg/mL (≈ 0.656 µM)	6.25 µg/mL (≈ 10.5 µM)	1.56 µg/mL (≈ 2.62 µM)	1.56 µg/mL (≈ 2.62 µM)	0.78 µg/mL (≈ 1.31 µM)	6.25 µg/mL (≈ 10.5 µM)	6.25 µg/mL (≈ 10.5 µM)	3.13 µg/mL (≈ 5.26 µM)	0.78 µg/mL (≈ 1.31 µM)	1.56 µg/mL (≈ 2.62 µM)	0.78 µg/mL (≈ 1.31 µM)	12.5 µg/mL (≈ 21 µM)	–
gentamicin [GM]	–	–	–	–	–	–	–	–	–	–	–	–	–	–	–	–	–	MIC ([2]; Table 2): 0.78 µg/mL; MIC ([7]; Table 2): 25 µg/mL; MIC ([8]; Table 2): 100 µg/mL; MIC [9, 25]: 100 µg/mL; MIC ([10]; Table 2): > 200 µg/mL; MIC ([12]; Table 2): 0.78 µg/mL; MIC [13, 25]: 100 µg/mL
NCC[C@H](O)C(=O)N[C@@H]1C[C@H](N)[C@@H](O[C@H]2O[C@H](CN)[C@@H](O)[C@H](O)[C@H]2O)[C@H](O)[C@H]1O[C@H]1O[C@H](CO)[C@@H](O)[C@H](N)[C@H]1O [Amikacin, amikacin]	–	–	–	–	–	–	–	–	–	–	–	–	–	–	–	–	–	toxicity compared with kanamycin [14]: approximately the same degree of the toxicity as kanamycin; effectiveness against kanamycin resistant bacteria [15]: effective against kanamycin resistant bacteria
NC[C@H]1O[C@H](O[C@H]2[C@H](O)[C@@H](O[C@H]3O[C@H](CO)[C@@H](O)[C@H](N)[C@H]3O)[C@H](NC(=O)C3(O)CCNC3)C[C@@H]2N)[C@H](O)[C@@H](O)[C@@H]1O (some centres unmarked) [KM-A der., 1-N-(3-hydroxypyrrolidine-3-carbonyl)-kanamycin A]	1.56 µg/mL (≈ 2.61 µM)	–	25 µg/mL (≈ 41.8 µM)	3.13 µg/mL (≈ 5.24 µM)	6.25 µg/mL (≈ 10.5 µM)	12.5 µg/mL (≈ 20.9 µM)	–	6.25 µg/mL (≈ 10.5 µM)	–	6.25 µg/mL (≈ 10.5 µM)	–	–	12.5 µg/mL (≈ 20.9 µM)	3.13 µg/mL (≈ 5.24 µM)	–	3.13 µg/mL (≈ 5.24 µM)	–	–
